BigSolDB 2.1

CC1(C)[C@H](C(=O)O)[C@@H]1/C=C(\Cl)C(F)(F)F (racemic)
solubility (mole fraction)
Details	283.15 K	288.15 K	293.15 K	298.15 K	303.15 K	308.15 K	313.15 K	318.15 K	323.15 K
in cyclohexane	0.00261	0.00304	0.00447	0.00592	0.00821	0.0119	0.0175	0.0258	0.0384
in ethanol	0.077	0.0817	0.0944	0.106	0.121	0.143	0.168	0.195	0.228
in ethyl acetate	0.0818	0.0938	0.109	0.123	0.141	0.165	0.186	0.217	0.243
in isobutanol	0.0701	0.0843	0.099	0.116	0.13	0.147	0.168	0.2	0.233
in methanol	0.058	0.0664	0.0722	0.0813	0.098	0.119	0.139	0.166	0.191
in methyl acetate	0.0727	0.0848	0.0976	0.114	0.129	0.151	0.171	0.2	0.226
in n-butanol	0.0748	0.0848	0.0964	0.11	0.129	0.149	0.167	0.203	0.239
in n-butyl acetate	0.089	0.102	0.119	0.135	0.153	0.175	0.195	0.223	0.247
in n-propanol	0.0753	0.0829	0.0944	0.109	0.13	0.142	0.173	0.213	0.252
in sec-butanol	0.0987	0.111	0.138	0.161	0.179	0.204	0.231	0.265	0.285
in tert-butanol	0.13	0.144	0.169	0.197	0.224	0.247	0.271	0.3	0.331
